Results from PubChem BioAssay AID1053179 (The Scripps Research Institute Molecular Screening Center, 2014).
Activity calls are given as the source filed them.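 The calls were made as follows: active = IC50 for loss of cell viability, measured as ATP drop, at or below 10 µM; inactive = the rest.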

The molecules below were run on Jurkat viability, CellTiter-Glo ATP luminescence (assay: Jurkat T cell cytotoxicity, late-stage follow-up, cytotoxicity control for TAAR1 agonist/antagonist project, luminescence, powder samples (AID 1053179)).
For `N#Cc1c(C(F)(F)F)cc(-c2ccc(Cl)cc2)nc1SCC(=O)Nc1ncccn1`, the IC50 was 53 µM (inactive).
`O=C(CCN1CCC(c2ccccc2)C1)c1ccccc1` (configuration not stated) gave an IC50 of 3.95 µM.
Molecule `CC(CN1CCCC1Cc1ccccc1)C(=O)c1ccc2c(c1)OCCO2` (configuration not stated) has an IC50 of 3.66 µM.
`Cc1ccc(C(=O)CCN2CCC(c3ccccc3)C2)cc1` (configuration not stated) was tested, and the IC50 was 5.06 µM.
For `N#Cc1c(C(F)(F)F)cc(-c2ccc(Cl)cc2)nc1SCC(=O)N1CCCCCC1`, the IC50 was > 83.3 µM (inactive).
`COc1cc(C(=O)CCN2CCC(c3ccccc3)C2)cc(OC)c1OC` (configuration not stated) showed an IC50 of 7.06 µM.
For `N#Cc1c(C(F)(F)F)cc(-c2ccc(Cl)cc2)nc1SCC(=O)N1CCCC1`, the IC50 was > 83.3 µM (inactive).
